Experimental data: US7211577B2, “Water-soluble phenylpyridazine derivative and medicine containing the same” (Kowa Co., Ltd., priority 2003, dated 2007)

COc1ccc(-c2cc(CN3CCN(C)CC3)c(=O)n(CC(C)C)n2)cc1F.Cl.Cl gave a melting point of 236.9 to 237 °C. CC(C)Cn1nc(-c2ccccc2)cc(CN(C)C)c1=O.Cl showed a melting point of 221.7 to 222.3 °C. Compound Cc1cc(-c2cc(CCCN)c(=O)n(Cc3ccccc3Cl)n2)ccc1F [Example 227, 4-(3-aminopropyl)-2-(2-chlorobenzyl)-6-(4-fluoro-3-methylphenyl)-2H-pyridazin-3-one] has a melting point of 80 to 85 °C. With COc1ccc(-c2cc(CN3CCNCC3)c(=O)n(CC3CC3)n2)cc1F [Example 20, 2-cyclopropylmethyl-6-(3-fluoro-4-methoxyphenyl)-4-(1-piperazinyl)methyl-2H-pyridazin-3-one] the melting point was 111.5 to 118 °C. In the case of Cc1cc(-c2cc(CN3CCN(C)CC3)c(=O)n(Cc3ccccc3)n2)ccc1F.Cl.Cl, the melting point is reported as 240 to 242.5 °C (dec.). With CC(C)Cn1nc(-c2ccc(S(C)(=O)=O)cc2)cc(CN2CCNCC2)c1=O.Cl.Cl the melting point was 222.4 to 224.2 °C. With Cc1cc(-c2cc(CN3CCN(C)CC3)c(=O)n(Cc3ccccc3Cl)n2)ccc1F.Cl.Cl the melting point was 191 to 202 °C (dec.). Compound COc1ccc(-c2cc(CN3CCNCC3)c(=O)n(CC(C)C)n2)cc1Cl.Cl.Cl has a melting point of 203.6 to 204.5 °C. With COc1ccc(-c2cc(CN3CCN(C)CC3)c(=O)n(CC(C)C)n2)cc1Cl.Cl.Cl the melting point was 235.8 to 236.7 °C. Compound COc1ccc(-c2cc(CN(C)C)c(=O)n(CCCc3ccc(F)cc3)n2)cc1F [Example 197, 4-dimethylaminomethyl-6-(3-fluoro-4-methoxyphenyl)-2-[3-(4-fluorophenyl)propyl]-2H-pyridazin-3-one] has a melting point of 97 to 100 °C. Work on COc1ccc(-c2cc(CN)c(=O)n(Cc3ccc(Cl)cc3)n2)cc1F [Example 205, 4-aminomethyl-2-(4-chlorobenzyl)-6-(3-fluoro-4-methoxyphenyl)-2H-pyridazin-3-one] yielded a melting point of 128.5 to 131.4 °C. With CSc1ccc(-c2cc(CN(C)C)c(=O)n(CC(C)C)n2)cc1.Cl [Example 161, 4-dimethylaminomethyl-2-isobutyl-6-[4-(methylthio)phenyl]-2H-pyridazin-3-one hydrochloride] the melting point was 216.8 to 218.4 °C. Compound Cc1cc(-c2cc(CN(C)C)c(=O)n(CC=Cc3ccc(Cl)cc3)n2)ccc1F.Cl has a melting point of 201.3 to 201.9 °C. Cc1c(-c2ccc(C(F)(F)F)cc2)nn(CC(C)C)c(=O)c1N1CCN(C)CC1.Cl.Cl showed a melting point of 249.9 to 252.8 °C. For Cc1cc(-c2cc(CN(C)C)c(=O)n(CC=Cc3ccccc3)n2)ccc1F.Cl, the melting point was 183.6 to 184.5 °C. Compound COc1ccc(-c2cc(CN3CCN(C)CC3)c(=O)n(Cc3ccc(F)c(F)c3)n2)cc1F [Example 207, 2-(3,4-difluorobenzyl)-6-(3-fluoro-4-methoxyphenyl)-4-(4-methyl-1-piperazinyl)methyl-2H-pyridazin-3-one] has a melting point of 135.4 to 136 °C. With CC(C)Cn1nc(-c2ccc(-c3ccccc3)cc2)cc(CN(C)C)c1=O.Cl the melting point was 243.9 to 244.1 °C. With CSc1ccc(-c2cc(CN3CCN(C)CC3)c(=O)n(CC(C)C)n2)cc1.Cl.Cl the melting point was 242.6 to 243.7 °C. Cc1ccc(-c2cc(CN(C)C)c(=O)n(CC(C)C)n2)cc1F.Cl [Example 8, 4-dimethylaminomethyl-6-(3-fluoro-4-methylphenyl)-2-isobutyl-2H-pyridazin-3-one hydrochloride] gave a melting point of 246.5 to 248.5 °C. CC(C)Cn1nc(-c2ccc([S+](C)[O-])cc2)cc(CN(C)C)c1=O.Cl (stereo not drawn) gave a melting point of 204.2 to 206 °C. In the case of CSc1ccc(-c2cc(CN3CCNCC3)c(=O)n(CC(C)C)n2)cc1.Cl.Cl, the melting point is reported as 248.5 to 253.7 °C (dec.). Cc1cc(-c2cc(CN)c(=O)n(Cc3ccccc3Cl)n2)ccc1F [Example 237, 4-aminomethyl-2-(2-chlorobenzyl)-6-(4-fluoro-3-methylphenyl)-2H-pyridazin-3-one] showed a melting point of 97.6 to 102.2 °C. For Cc1cc(-c2cc(CN3CCN(C)CC3)c(=O)n(Cc3ccccc3Cl)n2)ccc1F [Example 224, 2-(2-chlorobenzyl)-6-(4-fluoro-3-methylphenyl)-4-(4-methyl-1-piperazinyl)methyl-2H-pyridazin-3-one], the melting point was 149.7 to 150.9 °C. CC(C)Cn1nc(-c2ccc(F)c(F)c2)cc(CN2CCNCC2)c1=O.Cl.Cl gave a melting point of 182.5 to 186 °C. COc1ccc(-c2cc(CN(C)C)c(=O)n(CC(C)C)n2)cc1Cl.Cl gave a melting point of 213.6 to 214.3 °C. With CN1CCN(Cc2cc(-c3ccc(S(C)(=O)=O)cc3)nn(CC3CC3)c2=O)CC1.Cl.Cl the melting point was 209 to 211.4 °C. Work on COc1ccc(-c2cc(CN3CCN(C)CC3)c(=O)n(CC=Cc3ccc(Cl)cc3)n2)cc1F [Example 209, 2-(4-chlorocinnamyl)-6-(3-fluoro-4-methoxyphenyl)-4-(4-methyl-1-piperazinyl)methyl-2H-pyridazin-3-one] yielded a melting point of 123.9 to 125.5 °C. For Cc1ccc(-c2cc(CN3CCN(C)CC3)c(=O)n(CC(C)C)n2)cc1F.Cl.Cl, the melting point was 248.5 to 252 °C (dec.). In the case of COc1ccc(-c2cc(CCCN3CCN(C)CC3)c(=O)n(Cc3ccc(F)cc3)n2)cc1F [Example 239, 2-(4-fluorobenzyl)-6-(3-fluoro-4-methoxyphenyl)-4-[3-(4-methyl-1-piperazinyl)propyl]-2H-pyridazin-3-one], the melting point is reported as 108 to 109 °C. For Cc1ccc(-c2cc(CN)c(=O)n(CC(C)C)n2)cc1 [Example 50, 4-aminomethyl-2-isobutyl-6-(4-methylphenyl)-2H-pyridazin-3-one], the melting point was 74.9 to 77.9 °C. Cc1ccc(-c2cc(CNC(CO)CO)c(=O)n(CC(C)C)n2)cc1 [Example 52, 4-(1,3-dihydroxypropan-2-yl)aminomethyl-2-isobutyl-6-(4-methylphenyl)-2H-pyridazin-3-one] showed a melting point of 134.1 to 135.2 °C. For Cc1cc(-c2cc(CN3CCNCC3)c(=O)n(Cc3ccccc3)n2)ccc1F.Cl.Cl, the melting point was 162.7 to 180.7 °C (dec.). For COc1ccc(-c2cc(CN)c(=O)n(CCCc3ccc(F)cc3)n2)cc1F [Example 200, 4-aminomethyl-6-(3-fluoro-4-methoxyphenyl)-2-[3-(4-fluorophenyl)propyl]-2H-pyridazin-3-one], the melting point was 82 to 84 °C. With COc1ccc(-c2cc(CN3CCN(C)CC3)c(=O)n(Cc3ccc(F)cc3)n2)cc1F [Example 189, 2-(4-fluorobenzyl)-6-(3-fluoro-4-methoxyphenyl)-4-(4-methyl-1-piperazinyl)methyl-2H-pyridazin-3-one] the melting point was 112 to 113 °C. With CN1CCN(Cc2cc(-c3ccc([S+](C)[O-])cc3)nn(CC3CC3)c2=O)CC1.Cl.Cl (stereo not drawn) the melting point was 80 °C (dec.). Work on CC(C)Cn1nc(-c2ccccc2)cc(CN2CCN(C)CC2)c1=O.Cl.Cl yielded a melting point of 243.8 to 244.3 °C. With CC(C)Cn1nc(-c2ccc(C(F)(F)F)cc2)cc(CN2CCNCC2)c1=O.Cl.Cl the melting point was 210.8 to 212.5 °C. In the case of COc1ccc(-c2cc(CN(C)C)c(=O)n(Cc3ccc(Cl)cc3)n2)cc1F [Example 203, 2-(4-chlorobenzyl)-4-dimethylaminomethyl-6-(3-fluoro-4-methoxyphenyl)-2H-pyridazin-3-one], the melting point is reported as 95.3 to 96.7 °C. With COc1ccc(-c2cc(CN(C)C)c(=O)n(Cc3ccc(F)c(F)c3)n2)cc1F [Example 208, 2-(3,4-difluorobenzyl)-4-dimethylaminomethyl-6-(3-fluoro-4-methoxyphenyl)-2H-pyridazin-3-one] the melting point was 129.9 to 130.4 °C.
